Experimental findings from patent US5972890A, “Synthetic peptides for arterial imaging” (New England Deaconess Hospital Corporation, priority 1995, dated 1999) are described below.

Ends that are not written are not given here.

Tested on in the first series: not listed separately
Description: Plasma decay of 125I-labelled synthetic peptide after ear vein injection. To be noted: at four hours. The format is in vivo, rabbit. The method, then:
Each labelled synthetic peptide preparation (containing, for example, 150 to 400 or more μCi of ^125 I-labelled peptide) in column elution buffer was injected into the marginal ear vein of the ballooned and healing New Zealand white rabbits or WHHL rabbits. Serial blood samples were obtained from the opposite ear during the ensuing 0-24 hours and were analyzed for radioactivity. The labelled peptide concentrations in the blood samples that were withdrawn over the first 10 minutes after injection were extrapolated to zero time to determine the time zero radioactivity in the calculation of average plasma radioactivity. […] Peptides SP15a, SP17, SP19a, SP21a, SP28, SP34a, and SP30 were cleared rapidly from the plasma with half-lives of about one minute or less; after one hour, the plasma levels were less than 10% of the injected dose and fell by an additional 1% over the next three hours. Peptides SP15a, SP17, SP21a, SP28, SP34a, and SP30 leveled off to a plasma level of 3-6%; peptide SP19a cleared more quickly and leveled off to a concentration of 0.3% (at four hours).
As for “Ac-YRALVDTLKFVTEQAKGA-NH2 [SP-19a, CH3 CONH-Tyr-Arg-Ala-Leu-Val-Asp-Thr-Leu-Lys-Phe-Val-Thr-Glu-Gln-Ala-Lys-Gly-Ala-CONH2]”, the “plasma concentration at which peptide leveled off” value is 0.3%.

Staying with this series, now noted: from one hour to four hours after injection.
In the case of “Ac-YAKFRETLEDTRDRMY-NH2 [SP-15a, CH3 CONH-Tyr-Ala-Lys-Phe-Arg-Glu-Thr-Leu-Glu-Asp-Thr-Arg-Asp-Arg-Met-Tyr-CONH2]”, the “additional fall of plasma level over the next three hours” value was determined as 1%. On the same count and under the same terms, the result for “Ac-YRALVDTEFKVKQEAGAK-NH2 [SP-21a, CH3 CONH-Tyr-Arg-Ala-Leu-Val-Asp-Thr-Glu-Phe-Lys-Val-Lys-Gln-Glu-Ala-Gly-Ala-Lys-CONH2]” reads 1%. For the substance “Ac-YRALVDTLKFVTEQAKGA-NH2 [SP-19a, CH3 CONH-Tyr-Arg-Ala-Leu-Val-Asp-Thr-Leu-Lys-Phe-Val-Thr-Glu-Gln-Ala-Lys-Gly-Ala-CONH2]”, the “additional fall of plasma level over the next three hours” value was determined as 1%.

For Ac-YVLDEFREKLNEELEALKQK-NH2 [SP-34a], the “additional fall of plasma level over the next three hours” value is listed as 1%. For “YAALDLNAVANKIADFEL-NH2 [SP-17, H2 N-Tyr-Ala-Ala-Leu-Asp-Leu-Asn-Ala-Val-Ala-Asn-Lys-Ile-Ala-Asp-Phe-Glu-Leu- CONH2]”, the “additional fall of plasma level over the next three hours” value came out at 1%.

In the case of “YVGVAPGVGVAPGVGVAPG [SP-28, H2 N-Tyr-Val-Gly-Val-Ala-Pro-Gly-Val-Gly-Val-Ala-Pro-Gly-Val-Gly-Val-Ala-Pro- Gly-OH]”, the “additional fall of plasma level over the next three hours” value is 1%.

Regarding “YVPGVGVPGVGVPGVGVPGVG-NH2 [SP-30, H2 N-Tyr-Val-Pro-Gly-Val-Gly-Val-Pro-Gly-Val-Gly-Val-Pro-Gly-Val-Gly-Val-Pro- Gly-Val-Gly-CONH2]”, the “additional fall of plasma level over the next three hours” value is recorded as 1%.

The next series has as its system anti-SP-4 antiserum. Description: ELISA immunological cross-reactivity with anti-SP-4 antiserum. Type of series: binding. To be noted: ELISA plates coated with peptide or LDL, rabbit polyclonal anti-SP-4 antiserum. The method, then:
To produce anti-synthetic peptide antisera, purified synthetic peptide was dissolved in PBS, pH 7.4 at a concentration of 1 mg/ml. The peptide solution was mixed with an equal volume of complete Freund's adjuvant and vortexed thoroughly until a thick emulsion was produced. New Zealand White rabbits (Millbrook Farms, Amherst, Mass.) were injected with a total of 0.5 mg synthetic peptide administered subcutaneously in the four dorsal quadrants. The rabbits were given a boost (injected at the same sites) with 0.5 mg peptide emulsified in incomplete Freund's adjuvant 2-3 weeks later. Eight to ten days after the first boost, the animals were given a second, identical boost and were bled of 30 ml 8 to 10 days later.
To test for immunological cross-reactivity microtiter plates (Immulon II Dynatech Labs, Chantilly, Va.) were coated with the purified synthetic peptide or LDL by an overnight incubation at 4° C. with 100 ng peptide per well in 50 mM carbonate, pH 9.6, and blocked for nonspecific binding with an additional overnight incubation with phosphate-buffered saline, pH 7.4 (PBS), 1% bovine serum albumin (BSA). Control wells were coated with BSA alone. After washing twice with PBS, the wells were filled with serial dilutions (1:10 to 1:100,000 made in PBS, 3% BSA) of a rabbit polyclonal antibody generated against the synthetic peptide(s) and incubated for 45 minutes at room temperature. Following thorough washing (3× with PBS, 0.1% BSA), the wells were filled with a 1:2000 dilution of goat anti-rabbit IgG-horseradish peroxidase conjugate (Atlantic Antibodies, Scarborough, Me.). After a final wash, the wells were filled with 3,3'-5,5'-tetramethybenzidine (TMB) microwell peroxidase substrate (Kirkegaard and Perry Labs, Gaithersburg, Md.) and read at 650 nm every two minutes on an ELISA-5 automated plate reader (Physica, New York, N.Y.). Results (see, e.g., FIGS. 4 and 5) are expressed as the initial velocity of substrate conversion (change in OD650 /hr), which is determined by a linear regression of 15 data points per well. Each data point represents the average of three measured data points from the same plate, run at the same time.
On to “Ac-YKLALEAARLLADAEGAK-NH2 [SP-6A, CH3 CONH-Tyr-Lys-Leu-Ala-Leu-Glu-Ala-Ala-Arg-Leu-Leu-Ala-Asp-Ala-Glu-Gly-Ala-Lys-CONH2]”, for which the “binding of anti-SP-4 antiserum to coated peptide or LDL” value (“binding of anti-SP-4 antiserum” for short) is reported as “bind”.

As for “Ac-YKLALEAARLLANAEGAK-NH2 [SP-8A, CH3 CONH-Tyr-Lys-Leu-Ala-Leu-Glu-Ala-Ala-Arg-Leu-Leu-Ala-Asn-Ala-Glu-Gly-Ala-Lys-CONH2]”, the “binding of anti-SP-4 antiserum” value is listed as “bind”. As for “Ac-YRALVDTLK-NH2 [SP-14A, CH3 CONH-Tyr-Arg-Ala-Leu-Val-Asp-Thr-Leu-Lys-CONH2]”, the “binding of anti-SP-4 antiserum” value is “bind”. On the same count and under the same terms, the result for “Ac-YRALVDTLKFVTQAEGAK-NH2 [SP-4A, CH3 CONH-Tyr-Arg-Ala-Leu-Val-Asp-Thr-Leu-Lys-Phe-Val-Thr-Gln-Ala-Glu-Gly-Ala-Lys-CONH2]” reads “bind”.

Turning to “Ac-YRALVDYLKFVTQL-NH2 [SP-12A, CH3 CONH-Tyr-Arg-Ala-Leu-Val-Asp-Tyr-Leu-Lys-Phe-Val-Thr-Gln-Leu-CONH2]”, the “binding of anti-SP-4 antiserum” value is “bind”. Same read-out and setting: the result for “YKLALEAARLLADAEGAK-NH2 [SP-6, H2 N-Tyr-Lys-Leu-Ala-Leu-Glu-Ala-Ala-Arg-Leu-Leu-Ala-Asp-Ala-Glu-Gly-Ala-Lys- CONH2]” reads “bind”.

“YKLALEAARLLANAEGAK-NH2 [SP-8, H2 N-Tyr-Lys-Leu-Ala-Leu-Glu-Ala-Ala-Arg-Leu-Leu-Ala-Asn-Ala-Glu-Gly-Ala-Lys- CONH2]”: the “binding of anti-SP-4 antiserum” value is on record as “bind”. Same read-out and setting: the result for “YRALVDTLKFVTQAEGAK-NH2 [SP-4, NH2 -Tyr-Arg-Ala-Leu-Val-Asp-Thr-Leu-Lys-Phe-Val-Thr-Gln-Ala-Glu-Gly-Ala-Lys-CONH2]” reads “bind”.
